Data: paper PMC6181319, “Thermodynamic and computational analyses reveal the functional roles of the galloyl group of tea catechins in molecular recognition” (PLoS ONE, 2018)
Like-named read-outs stand apart in the source and are kept apart here. Marks after values point to notes of the source that are not given here.

How the values were obtained:
[1] = molecular target: T1, human serum albumin (HSA) (Homo sapiens, UniProt P02768); test: Isothermal titration calorimetry (ITC) of binding of catechins and analogs to HSA; parameters: purchased Sigma-Aldrich Japan (Tokyo, Japan); details: for change of binding affinity with addition of 0.2 M NaCl: 0.2 M NaCl versus no NaCl
T1 sequence (P02768 25-609): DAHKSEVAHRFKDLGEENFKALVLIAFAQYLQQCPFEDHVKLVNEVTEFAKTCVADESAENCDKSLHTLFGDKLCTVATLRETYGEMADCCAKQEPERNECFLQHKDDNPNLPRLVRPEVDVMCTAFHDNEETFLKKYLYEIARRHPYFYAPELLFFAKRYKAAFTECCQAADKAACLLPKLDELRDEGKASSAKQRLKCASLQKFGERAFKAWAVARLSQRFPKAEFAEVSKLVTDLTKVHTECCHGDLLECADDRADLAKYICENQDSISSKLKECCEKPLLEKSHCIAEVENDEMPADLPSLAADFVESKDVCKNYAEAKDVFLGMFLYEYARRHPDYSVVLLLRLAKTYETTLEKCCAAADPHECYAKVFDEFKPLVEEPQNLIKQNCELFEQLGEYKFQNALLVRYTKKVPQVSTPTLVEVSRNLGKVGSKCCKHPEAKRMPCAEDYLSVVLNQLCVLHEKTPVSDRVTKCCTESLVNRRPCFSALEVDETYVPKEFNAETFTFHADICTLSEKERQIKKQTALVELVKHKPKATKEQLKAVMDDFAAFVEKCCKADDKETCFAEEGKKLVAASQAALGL
Protocol: The binding of the catechins and its analogs to HSA was examined in a VP-ITC instrument (Microcal Northampton, MA). […] The data were analyzed with the Origin software (ver. 7) by means of a single-binding-site model. The thermodynamic parameters were obtained from three replicate titrations, where the dilution heats of the ligands were subtracted.

[2] = molecular target: T1, human serum albumin (HSA); test: Differential scanning calorimetry (DSC), thermal stability of HSA–ligand complexes; details: for Tm: DSC, HSA 50 μM, ligand 500 μM, 50 mM sodium phosphate pH 6.8, HSA alone 68.6 ± 0.1; for ΔTm at 500 µM: human, pH 6.8
Protocol: The thermal stabilities of HSA and the HSA–ligand complexes were determined by differential scanning calorimetry in a VP-DSC autosampler instrument (GE Healthcare). The cell was heated from 303 to 363 K at a rate of 1 K min^−1. The concentrations of HSA and the ligands were 50 and 500 μM, respectively, in a buffer composed of 50 mM sodium phosphate (pH 6.8). The data analysis was carried out with the Origin software (ver. 7) using a two-state model.

[3] = molecular target: T2, site I of HSA (Homo sapiens, UniProt P02768); test: ITC competition assay with warfarin (site I marker); assay type: binding; details: HSA 50 μM, catechin 500 μM, warfarin 500 μM titrated, pH 6.8, 1% DMSO
T2 construct: purchased Sigma-Aldrich Japan (Tokyo, Japan)
T2 sequence (P02768 25-609): as above
Protocol: To obtain information about the HSA binding site of catechins, we carried out competition assays using ITC. Warfarin was used as a marker for monitoring site I of HSA. […] Warfarin was titrated into the cell containing either HSA or an HSA-EGCg complex at 180-s intervals with constant stirring at 307 rpm. The total amount of heat obtained for each measurement was taken as the total heat quantity (ΔQ), and we verified whether warfarin and the catechins bound to the same site by comparing the ΔQ from the interaction between HSA and warfarin. The binding inhibition rate was defined by the equation belowcalculated as follows: […]

[4] = S1 Table, ITC binding affinity listed beside Tm, read-out: KD
[5] = Table 1, ITC, 298 K, 50 mM sodium phosphate pH 6.8
[6] = Table 1, ITC, 298 K, 50 mM sodium phosphate pH 6.8, HSA 50 μM, single-binding-site model
[7] = Table 1, ITC, 298 K, 50 mM sodium phosphate pH 6.8, read-out: KD
[8] = human serum albumin (HSA) 50 µM in buffer
[9] = S2 Table, NaCl 0.2 M, read-out: KD
[10] = Table 2, methylated catechin derivatives, ITC, 298 K

Oc1cc(O)c2c(c1)O[C@@H](c1ccc(O)c(O)c1)[C@H](O)C2 [C, (+)-catechin]
Kd [1, 4]: 5 ± 8.6 µM | ΔH/ΔG ([1]; Table 1, ITC, 298 K): 4% | ΔG [1, 5]: -7.1 ± 0.6 kcal/mol | ΔH [1, 5]: -0.3 ± 0.1 kcal/mol | −TΔS [1, 5]: -6.8 ± 0.7 kcal/mol | N (number of binding sites) [1, 6]: 1.0 ± 0.2 | Kd [1, 7]: 5 ± 8.6 µM | Tm [2]: 68.5 ± 0.1 °C | ΔTm at 500 µM [2, 8]: -0.1 °C

O=C(O[C@@H]1Cc2c(O)cc(O)cc2O[C@H]1c1ccc(O)c(O)c1)c1cc(O)c(O)c(O)c1 [Cg, (−)-catechin gallate]
thermodynamic profile of binding (enthalpy-driven or entropy-driven) ([1]; ITC, 298 K): entropy-driven | Kd [1, 4]: 3.5 ± 0.5 µM | ΔH/ΔG ([1]; Table 1, ITC, 298 K): 38% | ΔG [1, 5]: -7.4 ± 0.1 kcal/mol | ΔH [1, 5]: -2.8 ± 0.6 kcal/mol | −TΔS [1, 5]: -4.6 ± 0.7 kcal/mol | N (number of binding sites) [1, 6]: 1.0 ± 0.1 | Kd [1, 7]: 3.5 ± 0.5 µM | Tm [2]: 71.7 ± 0.1 °C | ΔTm at 500 µM [2, 8]: 3.1 °C

Oc1cc(O)c2c(c1)O[C@H](c1ccc(O)c(O)c1)[C@H](O)C2 [EC, (−)-epicatechin]
change of binding affinity with addition of 0.2 M NaCl ([1]; ITC): increased | thermodynamic profile of binding (enthalpy-driven or entropy-driven) ([1]; ITC, 298 K): entropy-driven | Kd [1, 4]: 49 ± 18 µM | Kd ([1]; S2 Table, NaCl 0 M, read-out: KD): 48.7 µM | Kd [1, 9]: 0.7 µM | ΔH/ΔG ([1]; Table 1, ITC, 298 K): 13% | ΔG [1, 5]: -5.8 ± 0.2 kcal/mol | ΔH [1, 5]: -0.8 ± 0.2 kcal/mol | −TΔS [1, 5]: -5.1 ± 0.4 kcal/mol | N (number of binding sites) [1, 6]: 1.0 ^b | Kd [1, 7]: 49 ± 18 µM | Tm [2]: 68.7 ± 0.3 °C | ΔTm at 500 µM [2, 8]: 0 °C

O=C(O[C@@H]1Cc2c(O)cc(O)cc2O[C@@H]1c1ccc(O)c(O)c1)c1cc(O)c(O)c(O)c1 [ECg, (−)-epicatechin gallate]
change of binding affinity with addition of 0.2 M NaCl ([1]; ITC): decreased | thermodynamic profile of binding (enthalpy-driven or entropy-driven) ([1]; ITC, 298 K): enthalpy-driven | Kd [1, 4]: 1.1 ± 0.1 µM | Kd [1, 9]: 3.7 µM | ΔH/ΔG ([1]; Table 1, ITC, 298 K): 63% | ΔG [1, 5]: -8.1 ± 0.1 kcal/mol | ΔH [1, 5]: -5.1 ± 0.5 kcal/mol | −TΔS [1, 5]: -3.1 ± 0.5 kcal/mol | N (number of binding sites) [1, 6]: 1.0 ± 0.1 | Kd [1, 7]: 1.1 ± 0.1 µM | Tm [2]: 72.2 ± 0.1 °C | ΔTm at 500 µM [2, 8]: 3.5 °C

Oc1cc(O)c2c(c1)O[C@H](c1cc(O)c(O)c(O)c1)[C@H](O)C2 [EGC, (−)-epigallocatechin]
binding site compared with warfarin [3]: identical | change of binding affinity with addition of 0.2 M NaCl ([1]; ITC): increased | thermodynamic profile of binding (enthalpy-driven or entropy-driven) ([1]; ITC, 298 K): entropy-driven | Kd ([1]; KD, S1 Table, ITC binding affinity listed beside Tm): 20 ± 16 µM | Kd ([1]; KD, S2 Table, NaCl 0 M): 19.5 µM | Kd ([1]; KD, S2 Table, NaCl 0.2 M): 6.7 µM | Kd ([1]; KD, Table 1, ITC, 298 K, 50 mM sodium phosphate pH 6.8): 20 ± 16 µM | ΔH/ΔG ([1]; Table 1, ITC, 298 K): 10% | ΔG [1, 5]: -6.3 ± 0.4 kcal/mol | ΔH [1, 5]: -0.6 ± 0.4 kcal/mol | −TΔS [1, 5]: -5.8 ± 0.7 kcal/mol | N (number of binding sites) [1, 6]: 1.0 ± 0.2 | Tm [2]: 68.8± 0.2 °C | ΔTm at 500 µM [2]: 0.2 °C

O=C(O[C@@H]1Cc2c(O)cc(O)cc2O[C@@H]1c1cc(O)c(O)c(O)c1)c1cc(O)c(O)c(O)c1 [EGCg, (−)-epigallocatechin gallate]
binding site compared with warfarin [3]: identical | change of binding affinity with addition of 0.2 M NaCl ([1]; ITC): decreased | thermodynamic profile of binding (enthalpy-driven or entropy-driven) ([1]; ITC, 298 K): enthalpy-driven | Kd [1, 4]: 2.2 ± 0.3 µM | Kd [1, 9]: 27.3 µM | N ([1]; S3 Table, temperature 288 K): 1.1±0.1 | ΔG ([1]; S3 Table, temperature 288 K): -7.4 ± 0.1 kcal/mol | ΔH ([1]; S3 Table, temperature 288 K): -3.9 ± 0.5 kcal/mol | −TΔS ([1]; S3 Table, temperature 288 K): -3.5 ± 0.5 kcal/mol | Kd ([1]; S3 Table, temperature 288 K, read-out: KD): 2.3 ± 0.1 µM | N ([1]; S3 Table, temperature 293 K): 1.1±0.1 | ΔG ([1]; S3 Table, temperature 293 K): -7.6 ± 0.7 kcal/mol | ΔH ([1]; S3 Table, temperature 293 K): -4.7 ± 0.7 kcal/mol | −TΔS ([1]; S3 Table, temperature 293 K): -2.9 ± 0.8 kcal/mol | Kd ([1]; S3 Table, temperature 293 K, read-out: KD): 2.1 ± 0.7 µM | N ([1]; S3 Table, temperature 298 K): 1.1±0.1 | ΔG ([1]; S3 Table, temperature 298 K): -7.8 ± 0.4 kcal/mol | ΔH ([1]; S3 Table, temperature 298 K): -5.7 ± 0.7 kcal/mol | −TΔS ([1]; S3 Table, temperature 298 K): -2.1 ± 0.6 kcal/mol | Kd ([1]; S3 Table, temperature 298 K, read-out: KD): 2 ± 0.4 µM | N ([1]; S3 Table, temperature 303 K): 1.1±0.1 | ΔG ([1]; S3 Table, temperature 303 K): -7.9 ± 0.8 kcal/mol | ΔH ([1]; S3 Table, temperature 303 K): -6.1 ± 0.2 kcal/mol | −TΔS ([1]; S3 Table, temperature 303 K): -1.8 ± 0.3 kcal/mol | Kd ([1]; S3 Table, temperature 303 K, read-out: KD): 2.1 ± 0.8 µM | ΔH/ΔG ([1]; Table 1, ITC, 298 K): 61% | ΔG [1, 5]: -7.7 ± 0.1 kcal/mol | ΔH [1, 5]: -4.7 ± 0.6 kcal/mol | −TΔS [1, 5]: -3.0 ± 0.6 kcal/mol | N (number of binding sites) [1, 6]: 1.1 ± 0.1 | Kd [1, 7]: 2.2 ± 0.3 µM | ΔG [1, 10]: -7.7 ± 0.1 kcal/mol | −TΔS [1, 10]: -3.0 ± 0.6 kcal/mol | N (number of binding sites) ([1]; Table 2, methylated catechin derivatives, ITC, 298 K, 50 mM sodium phosphate pH 6.8): 1.1 ± 0.1 | Kd ([1]; Table 2, methylated catechin derivatives, ITC, 298 K, 50 mM sodium phosphate pH 6.8, read-out: KD): 2.2 ± 0.3 µM | ΔCp (change in heat capacity) ([1]; slope of ΔH versus temperature, 288 to 303 K): −148 cal mol^−1 K^−1 | Tm [2]: 71.4 ± 0.3 °C | ΔTm at 500 µM [2, 8]: 2.7 °C
